Assay results reported in patent US20260184707A1, “PHARMACEUTICAL COMPOUNDS FOR THE TREATMENT OF COMPLEMENT MEDIATED DISORDERS” (ALEXION PHARMACEUTICALS, INC., priority 2022, published 2026).

Molecular target: T1, Human complement C1s enzyme (Homo sapiens, UniProt P09871)
T1 construct: purified from human serum, Complement Technology, Inc; purchased Complement Technology, Inc; host or cells: human serum (plasma-derived native protein)
T1 sequence (P09871 438-688 limits assumed): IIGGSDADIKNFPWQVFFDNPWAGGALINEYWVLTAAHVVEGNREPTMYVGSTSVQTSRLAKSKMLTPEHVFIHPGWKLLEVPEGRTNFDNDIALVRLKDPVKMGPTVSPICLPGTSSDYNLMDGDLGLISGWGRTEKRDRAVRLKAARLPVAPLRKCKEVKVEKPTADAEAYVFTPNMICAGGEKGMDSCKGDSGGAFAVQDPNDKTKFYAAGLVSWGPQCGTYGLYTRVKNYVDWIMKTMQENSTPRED
T1 sequence (P09871 16-437 partner limits assumed): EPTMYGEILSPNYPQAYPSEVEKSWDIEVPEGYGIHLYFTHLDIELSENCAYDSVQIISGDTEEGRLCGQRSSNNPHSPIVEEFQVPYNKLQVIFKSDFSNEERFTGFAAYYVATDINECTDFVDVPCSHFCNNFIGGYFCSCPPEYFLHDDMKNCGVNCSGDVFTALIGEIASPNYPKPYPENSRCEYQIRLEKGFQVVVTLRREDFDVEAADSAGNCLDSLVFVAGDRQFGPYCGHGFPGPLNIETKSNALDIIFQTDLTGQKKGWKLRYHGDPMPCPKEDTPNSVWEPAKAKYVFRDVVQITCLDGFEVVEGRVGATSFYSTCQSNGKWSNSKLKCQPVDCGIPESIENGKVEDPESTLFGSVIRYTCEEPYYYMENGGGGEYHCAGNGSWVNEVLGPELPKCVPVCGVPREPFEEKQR
Assay: Human C1s enzyme assay
Assay type: biochemical
Conditions: human complement C1s enzyme 1.16 nM, substrate Z-L-Lys-SBzl, A405; read-out: IC50 (Stars)
How it was run: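 Serum-purified human C1s (1.16 nM final) preincubated 5 min at room temperature with compound in 50 mM Tris, 1 M NaCl, pH 7.5. Z-L-Lys-SBzl and DTNB added at 100 μM each; A405 recorded every 30 s. IC50 from nonlinear regression of reaction rates versus compound concentration.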

Row | IC50 [nM] | Structure (SMILES)
1 | < 100 | COc1ccc(-c2ncc(N[C@H](C)c3ccc4oc5ccccc5c4c3)c(=O)n2CC(=O)NCc2cc3cnccc3[nH]2)cc1 [Compound 248, (R)-N-((1H-pyrrolo[3,2-c]pyr-idin-2-yl)methyl)-2-(5-((1-(dibenzo[b,d]furan-2-yl)ethyl)-amino)-2-(4-methoxyphenyl)-6-oxopyrimidin-1(6H)-yl)-acetamide]
2 | < 100 | O=C(Cn1c(-c2cccs2)ncc(NCc2ccc3oc4ccccc4c3c2)c1=O)NCc1cc2cnccc2[nH]1 [Compound 251, N-((1H-pyrrolo[3,2-c]pyridin-2-yl)methyl)-2-(5-((dibenzo [b,d]furan-2-ylmethyl)amino)-6-oxo-2-(thiophen-2-yl)pyrimi-din-1(6H)-yl)acetamide]
3 | < 100 | O=C(Cn1c(-c2ccccn2)ncc(NCc2ccc3oc4ccccc4c3c2)c1=O)NCc1cc2cnccc2[nH]1 [Compound 252, N-((1H-pyrrolo[3,2-c]pyridin-2-yl)methyl)-2-(5-((dibenzo [b,d]furan-2-ylmethyl)amino)-6-oxo-2-(pyridin-2-yl)pyrimi-din-1(6H)-yl)acetamide]
4 | < 100 | O=C(Cn1c(-c2ccccc2)ncc(NCc2ccc3sc4ccccc4c3c2)c1=O)NCc1cc2cnccc2[nH]1 [Compound 259, N-((1H-pyrrolo[3,2-c]pyridin-2-yl)methyl)-2-(5-((dibenzo [b,d]thiophen-2-ylmethyl)-amino)-6-oxo-2-phenylpyrimi-din-1(6H)-yl)acetamide]
5 | > 1000 | O=C(NCCOc1nc(-c2ccccc2)ncc1NCc1ccc2oc3ccccc3c2c1)c1cc2cnccc2[nH]1 [Compound 266, N-(2-((5-((dibenzo[b,d]furan-2-ylmethyl)amino)-2-phenyl-pyrimidin-4-yl)oxy)ethyl)-1H-pyrrolo[3,2-c]pyridine-2-carboxamide]
6 | > 1000 | O=C(NCCn1c(-c2ccccc2)ncc(NCc2ccc3oc4ccccc4c3c2)c1=O)c1cc2cnccc2[nH]1 [Compound 267, N-(2-(5-((dibenzo[b,d]furan-2-ylmethyl)amino)-6-oxo-2-phenylpyrimidin-1(6H)-yl)-ethyl)-1H-pyrrolo[3,2-c]pyr-idine-2-carboxamide]
7 | > 1000 | O=C(COc1cc(C(=O)NCc2ccc3oc4ccccc4c3c2)nc(-c2ccccc2)n1)NCc1cc2cnccc2[nH]1 [Compound 268, 6-(2-(((1H-pyrrolo[3,2-c]pyridine-2-yl)methyl)amino)-2-oxoethoxy)-N-(dibenzo[b,d]furan-2-ylmethyl)-2-phenylpyrimidine-4-carboxamide]
8 | > 1000 | Cc1nc(-c2ccccc2)nc(OCC(=O)NCc2cc3cnccc3[nH]2)c1NCc1ccc2oc3ccccc3c2c1 [Compound 269, N-((1H-pyrrolo[3,2-c]pyridine-2-yl)methyl)-2-((5-((dibenzo[b,d]furan-2-ylmethyl)amino)-6-methyl-2-phenylpyrimidin-4-yl)oxy)acetamide]

The remaining lines, values behind:

Row | Structure (SMILES) | IC50 [nM]
9 | CO[C@@H]1CO[C@H]2[C@@H]1OC[C@H]2Oc1ccc(-c2ncc(NC(=O)c3ccc(-c4ccccc4)s3)c(=O)n2CC(=O)NCc2cc3cnccc3[nH]2)cc1 [Compound 249, N-(1-(2-(((1H-pyrrolo[3,2-c]pyridine-2-yl)methyl)amino)-2-oxoethyl)-2-(4-(((3R,3aR,6R,6aR)-6-methoxyhexahydrofuro[3,2-b]furan-3-yl)oxy)phenyl)-6-oxo-1,6-dihydropyrimidin-5-yl)-5-phenylthiophene-2-carboxamide] | < 100
10 | O=C(Cn1c(-c2ccccc2)ncc(NCc2ccc(-c3ccccc3F)cc2)c1=O)NCc1cc2cnccc2[nH]1 [Compound 250, N-((1H-pyrrolo[3,2-c]pyridin-2-yl)methyl)-2-(5-(((2′-fluoro-[1,1′-biphenyl]-4-yl)methyl)amino)-6-oxo-2-phenylpyrimidin-1(6H)-yl)acetamide] | < 100
11 | O=C(Cn1c(C2CCCC2)ncc(NCc2ccc3oc4ccccc4c3c2)c1=O)NCc1cc2cnccc2[nH]1 [Compound 253, N-((1H-pyrrolo[3,2-c]pyridine-2-yl)methyl)-2-(2-cyclopentyl-5-((dibenzo[b,d]furan-2-ylmethyl)amino)-6-oxopyrimidin-1(6H)-yl)acetamide] | < 100
12 | O=C(Cn1c(-c2ccccc2)ncc(NC(=O)C2CCC(c3ccccc3)CC2)c1=O)NCc1cc2cnccc2[nH]1 (centres unmarked) [Compound 254, N-(1-(2-(((1H-pyrrolo[3,2-c]pyridin-2-yl)methyl)amino)-2-oxoethyl)-6-oxo-2-phenyl-1,6-dihydropyrimidin-5-yl)-4-phen-ylcyclohexane-1-carboxamide] | < 100
13 | O=C(Cn1c(-c2ccc(S(F)(F)(F)(F)F)cc2)ncc(NCc2ccc3c(c2)-c2ccccc2C3(F)F)c1=O)NCc1cc2cnccc2[nH]1 [Compound 255, N-((1H-pyrrolo[3,2-c]pyridine-2-yl)methyl)-2-(5-(((9,9-difluoro-9H-fluoren-3-yl)methyl)amino)-6-oxo-2-(4-(pentafluoro-λ^6-sulfaneyl)phenyl)pyrimidin-1(6H)-yl)acetamide] | < 100
14 | O=C(Cn1c(-c2ccccc2)ncc(NC(=O)c2ccc(-c3ccccc3)s2)c1=O)NCc1ccc(Cl)cc1 [Compound 256, N-(1-(2-((4-chlorobenzyl)-amino)-2-oxoethyl)-6-oxo-2-phenyl-1,6-dihydropyrimidin-5-yl)-5-phenylthiophene-2-carboxamide] | > 1000
15 | COc1ccccc1-c1ccc(CNc2cnc(-c3ccccc3)n(CC(=O)NCc3cc4cnccc4[nH]3)c2=O)cc1 [Compound 257, N-((1H-pyrrolo[3,2-c]pyridin-2-yl)methyl)-2-(5-(((2′-meth-oxy-[1,1′-biphenyl]-4-yl)meth-yl)amino)-6-oxo-2-phenylpyr-imidin-1(6H)-yl)acetamide] | < 100
16 | O=C(Cn1c(-c2ccccc2)ncc(NCc2ccc(-c3ccccc3)s2)c1=O)NCc1cc2cnccc2[nH]1 [Compound 258, N-((1H-pyrrolo[3,2-c]pyridine-2-yl)methyl)-2-(6-oxo-2-phenyl-5-(((5-phenylthiophen-2-yl)methyl)amino)pyrimidin-1(6H)-yl)acetamide] | < 100
17 | O=C(Cn1c(N2CCOCC2)ncc(NCc2ccc3oc4ccccc4c3c2)c1=O)NCc1cc2cnccc2[nH]1 [Compound 260, N-((1H-pyrrolo[3,2-c]pyridin-2-yl)methyl)-2-(5-((dibenzo [b,d]furan-2-ylmethyl)amino)-2-morpholino-6-oxopyrimidin-1(6H)-yl)acetamide] | < 100
18 | O=C(Cn1c(N2CCCCC2)ncc(NCc2ccc3oc4ccccc4c3c2)c1=O)NCc1cc2cnccc2[nH]1 [Compound 261, N-((1H-pyrrolo[3,2-c]pyridin-2-yl)methyl)-2-(5-((dibenzo [b,d]furan-2-ylmethyl)amino)-6-oxo-2-(piperidin-1-yl)pyrimi-din-1(6H)-yl)acetamide] | < 100
19 | CO[C@@H]1CO[C@H]2[C@@H]1OC[C@H]2Oc1ccc(-c2ncc(NC(=O)c3cnc(-c4ccccc4)s3)c(=O)n2CC(=O)NCc2cc3cnccc3[nH]2)cc1 [Compound 262, N-(1-(2-(((1H-pyrrolo[3,2-c]pyridine-2-yl)methyl)amino)-2-oxoethyl)-2-(4-(((3R,3aR,6R,6aR)-6-methoxyhexahydrofuro[3,2-b]furan-3-yl)oxy)phenyl)-6-oxo-1,6-dihydropyrimidin-5-yl)-2-phenylthiazole-5-carboxamide] | < 100
20 | O=C(Cn1c(-c2ccc(O[C@@H]3CO[C@H]4[C@@H]3OC[C@H]4O)cc2)ncc(NC(=O)c2cnc(-c3ccccc3)s2)c1=O)NCc1cc2cnccc2[nH]1 [Compound 263, N-(1-(2-(((1H-pyrrolo[3,2-c]pyridine-2-yl)methyl)amino)-2-oxoethyl)-2-(4-(((3R,3aR,6R,6aR)-6-hydroxyhexahydrofuro[3,2-b]furan-3-yl)oxy)phenyl)-6-oxo-1,6-dihydropyrimidin-5-yl)-2-phenylthiazole-5-carboxamide] | < 100
21 | O=C(Cn1c(-c2ccc(O[C@@H]3CO[C@H]4[C@@H]3OC[C@H]4O)cc2)ncc(NC(=O)c2ccc(-c3ccccc3)s2)c1=O)NCc1cc2cnccc2[nH]1 [Compound 264, N-(1-(2-(((1H-pyrrolo[3,2-c]pyridin-2-yl)methyl)amino)-2-oxoethyl)-2-(4-(((3R,3aR,6R, 6aR)-6-hydroxyhexahydrofuro [3,2-b]furan-3-yl)oxy)phenyl)-6-oxo-1,6-dihydropyrimidin-5-yl)-5-phenylthiophene-2-carboxamide] | < 100
22 | C[C@H](Nc1cncn(CC(=O)NCc2cc3cnccc3[nH]2)c1=O)c1ccc2oc3ccccc3c2c1 [Compound 265, (S)—N-((1H-pyrrolo[3,2-c]pyridine-2-yl)methyl)-2-(5-((1-(dibenzo[b,d]furan-2-yl)ethyl)amino)-6-oxopyrimidin-1(6H)-yl)acetamide] | < 100
23 | O=C(Cn1c(N2CC(F)C2)ncc(NCc2ccc3oc4ccccc4c3c2)c1=O)NCc1cc2cnccc2[nH]1 [Compound 270, 2-[5-(dibenzofuran-2-ylmethylamino)-2-(3-fluoroazetidin-1-yl)-6-oxo-pyrimidin-1-yl]-N-(1H-pyrrolo[3,2-c]pyridine-2-ylmethyl)acetamide] | < 100
